Measured values as given in patent publication US4499093A, “Interferon induction method” (Dso "Pharmachim", priority 1982, dated 1985).
Where “and” joins values, the source holds several entries; their conditions need not be identical. Identical values can stand only once. Counter-ions that a name gives are not always drawn.

Experiments:
influenza virus A = influenza virus A experimental infection in white mice; format: in vivo; details: oral or intraperitoneal single dose 24 h before, 24 or 72 h after inoculation
[1] = test system: Human diploid embryonal fibroblasts
Description: (§1) In monolayer cellular cultures (L-cells, mouse embryonal fibroblasts, human diploid embryonal pulmonary fibroblasts), the interferon titre is measured and the antiviral resistance is simultaneously determined. […] Incubation of the cultures is carried out for 24 hours at 37° C.; The culture medium after determining its cytotoxicity microscopically is collected for the interferon titre measurement. The cells are rinsed in Hanks' saline solution and inoculated by 100 TCID50 virus of the vesicular stomatite (Indiana strain). The cytopathic effect and the infectious virus yield are specified the basis of which the state of the antiviral resistancy is determined.
(§2) The interferon titre is determined as follows: by the plaque-inhibition method in L-cells or in human embryonal diploid fibroblasts using the vesicular stomatite virus (Indiana strain) by a detector virus; by the cytopathic effect inhibition method of the same virus (using human embryonal diploid fibroblasts). It is expressed in IU/ml by comparing the reference preparations of mouse or human interferon.

[2] = test system: Mouse embryonal fibroblasts; assay: interferon induction in mouse embryonal fibroblasts
Description: as §1, §2

[3] = test system: Mouse peritoneal leucocytes; assay: cells; details: Leucocyte, read-out: MinIFN-IC (minimum interferon-inducing concentration)
Description: as §1, §2

[4] = test system: some DNA and RNA-containing viruses; details: cellular cultures, background; cited from earlier work
L-cells [5] = test system: L-cells
Description: as §1, §2

Herpes simplex 1 virus = test system: Herpes simplex 1 virus; parameters: species or system white mice; details: mouse, in vivo
L-cells [6] = assay: cells; details: Mus musculus, read-out: MinIFN-IC (minimum interferon-inducing concentration)
Description: as §1, §2

[7] = test system: Mouse peritoneal leucocytes
Description: as §1, §2

Semliki virus = test system: Semliki virus; parameters: species or system white mice; details: mouse, in vivo
acute toxicity (LD50) = assay: acute toxicity (LD50); parameters: species or system white mice; details: mouse, in vivo; intravenous; read-out: single LD50
serum interferon [8] = assay: serum interferon titre in human volunteers; parameters: average geometrical interferon titre: dose or concentration left out as unconfirmed
Description: as §2

[9] = test system: Human diploid embryonal fibroblasts; assay: cells; details: Fibroblast, read-out: MinIFN-IC (minimum interferon-inducing concentration)
Description: as §1, §2

serum interferon [10] = assay: interferon-inducing activity in vivo in white mice (serum interferon titre)
Description: Serum samples for measuring the interferon titre are taken on the 6th, 12th, 24th, 48th, 72nd and 96th hour (mixed serum sample of minimum 8 animals).
as §2

[11] = internal / in vivo, background; cited from earlier work
[12] = intravenous, 0.1 mg/kg, 48th hour

OCCN(CCO)c1nc(N2CCCCC2)c2nc(N(CCO)CCO)nc(N3CCCCC3)c2n1 [Dipyridamole, 2,6-bis (diethanolamino)-4,8-dipiperidinopyramido [5,4-d]pyrimidine]
protective effect (influenza virus A): marked protective effect
Maximum interferon titre [1]: 16-32
OptINF-IC (optimum interferon-inducing concentration) [1]: 100-300 micromol/1
OptINF-IC (optimum interferon-inducing concentration) [2]: 300 micromol/1
minimal effective concentration ([2]; Mus musculus, Fibroblast, read-out: MinIFN-IC (minimum interferon-inducing concentration)): 100 µM
Maximum interferon titre ([2]; induced by OptINF-IC): 16 IU/ml
minimal effective concentration [3]: 3 µM
antiviral effect in in vitro testing [4]: antiviral effect
Maximum interferon titre (L-cells [5]): ≥ 128 IU/ml
OptINF-IC (optimum interferon-inducing concentration) (L-cells [5]): 30-300 micromol/1
induced interferon titre (L-cells [5]): over 128 IU/ml
induced interferon titres (L-cells [5]): exceed 128 IU/ml
interferon production compared with poly I:C (L-cells [5]): markedly exceeds the interferon production of poly I:C
Lethality % M ± m (Herpes simplex 1 virus): 55.0 ± 11.41%
Lethality No. (Herpes simplex 1 virus): 11/20
Mean survival time (Herpes simplex 1 virus): 17.3 ± 2.64 days
Protection coefficient (Herpes simplex 1 virus): 1.81
antiviral effect in oral application vs intraperitoneal (Herpes simplex 1 virus): much stronger
protective effect (Herpes simplex 1 virus): marked protective effect
t (Herpes simplex 1 virus): 3.94
minimal effective concentration (L-cells [6]): 10 µM
Maximum interferon titre [7]: ≥ 256 IU/ml
OptINF-IC (optimum interferon-inducing concentration) [7]: 100-1000
interferon titre compared with double-stranded RNA of phage f2 [7]: higher than that induced by double-stranded RNA of phague f2 of E. coli
optimum interferon-inducing concentration [7]: 100 µM
Lethality % M ± m (Semliki virus): 30.0 ± 15.27% and 40.0 ± 16.32%
Lethality No. (Semliki virus): 3/10 and 4/10
Mean survival time (Semliki virus): 22.6 ± 3.77 days and 20.7 ± 3.82 days
Protection coefficient (Semliki virus): 2.4 and 1.8
antiviral effect in oral application vs intraperitoneal (Semliki virus): much stronger
protective effect (Semliki virus): marked protective effect
t (Semliki virus): 3.02 and 2.64
LD50 (acute toxicity (LD50)): 150 mg/kg
Mean serum interferon titre, positive responders (serum interferon [8]; 0 hours after administration (baseline)): 5.2 ± 1.7 IU/ml
subjects with marked raising of serum interferon level (serum interferon [8]; 100 mg single oral dose, 20 men and women, 24th and 48th hour): 80%
Mean serum interferon titre, positive responders (serum interferon [8]; 24-48 hours after administration): 1069.0 ± 479.7 IU/ml
increase of average geometrical interferon titres vs initial level (serum interferon [8]; 24-48 hours, oral): Over 200 time
average geometrical interferon titre (serum interferon [8]; 24-48 hours, oral single doses as printed): 1069.0±479.7 IU/ml
average geometrical interferon titre, initial level (serum interferon [8]; initial level before dipyridamole): 5.2±1.7 IU/ml
treated subjects with marked interferon production (serum interferon [8]; oral, single doses (1-2 mg/kg)): 80%
minimal effective concentration [9]: 10 µM
preservation of high serum interferon levels (serum interferon [10]; even 96 hours after administration): relatively continuous preservation of the high interferon levels
time of peak interferon levels (serum interferon [10]; intraperitoneal, 16.7 mg/kg): 24 to 48 h
maximum titres / peak levels (serum interferon [10]; intraperitoneal, 16.7 mg/kg, 24-48th hour): 256 IU/ml
interferon concentrations until the 120th hour (serum interferon [10]; intraperitoneal, 16.7 mg/kg, until 120th hour): Marked concentrations
interferon-inducing activity of lower doses (serum interferon [10]; intraperitoneal, lower doses, under 0.1 mg/kg inclusive): lower but better marked activity
effective doses (serum interferon [10]; intraperitoneal, "or more"): 0.1 to 16.7 mg/kg
effective doses (serum interferon [10]; intravenous): 0.01 to 50 mg/kg
Interferon titre in serum (serum interferon [10]; intravenous, 0.01 mg/kg, 72nd hour): 16 IU/ml
Interferon titre in serum (serum interferon [10]; intravenous, 0.05 mg/kg, 24th hour): < 4 IU/ml
Interferon titre in serum (serum interferon [10]; intravenous, 0.05 mg/kg, 48th hour): 64 IU/ml
Interferon titre in serum (serum interferon [10]; intravenous, 0.05 mg/kg, 72nd hour): 32 IU/ml
Interferon titre in serum (serum interferon [10]; intravenous, 0.1 mg/kg, 6th hour): ≤ 4 IU/ml
Interferon titre in serum (serum interferon [10]; intravenous, 0.1 mg/kg, 12th hour): ≤ 4 IU/ml
Interferon titre in serum (serum interferon [10]; intravenous, 0.1 mg/kg, 24th hour): ≤ 4 IU/ml
Interferon titre in serum (serum interferon [10]; [12]): 128 IU/ml
maximum titres (serum interferon [10]; [12]): 128 IU/ml
Interferon titre in serum (serum interferon [10]; intravenous, 0.1 mg/kg, 72nd hour): 32 IU/ml
Interferon titre in serum (serum interferon [10]; intravenous, 0.2 mg/kg, 24th hour): ≤ 4 IU/ml
Interferon titre in serum (serum interferon [10]; intravenous, 0.2 mg/kg, 48th hour): 32 IU/ml
Interferon titre in serum (serum interferon [10]; intravenous, 0.2 mg/kg, 72nd hour): 32 IU/ml
Interferon titre in serum (serum interferon [10]; intravenous, 0.6 mg/kg, 6th hour): < 4 IU/ml
Interferon titre in serum (serum interferon [10]; intravenous, 0.6 mg/kg, 12th hour): 8 IU/ml
Interferon titre in serum (serum interferon [10]; intravenous, 0.6 mg/kg, 24th hour): 32 IU/ml
Interferon titre in serum (serum interferon [10]; intravenous, 0.6 mg/kg, 48th hour): 16 IU/ml
Interferon titre in serum (serum interferon [10]; intravenous, 0.6 mg/kg, 72nd hour): 16 IU/ml
Interferon titre in serum (serum interferon [10]; intravenous, 1.8 mg/kg, 12th hour): 16 IU/ml
Interferon titre in serum (serum interferon [10]; intravenous, 1.8 mg/kg, 24th hour): 16 IU/ml
Interferon titre in serum (serum interferon [10]; intravenous, 1.8 mg/kg, 72nd hour): 8 IU/ml
Interferon titre in serum (serum interferon [10]; intravenous, 5.5 mg/kg, 12th hour): 16 IU/ml
Interferon titre in serum (serum interferon [10]; intravenous, 5.5 mg/kg, 24th hour): 16 IU/ml
Interferon titre in serum (serum interferon [10]; intravenous, 17.7 mg/kg, 12th hour): 32 IU/ml
Interferon titre in serum (serum interferon [10]; intravenous, 17.7 mg/kg, 24th hour): 16 IU/ml
Interferon titre in serum (serum interferon [10]; intravenous, 50.0 mg/kg, 12th hour): 8 IU/ml
Interferon titre in serum (serum interferon [10]; intravenous, 50.0 mg/kg, 24th hour): 8(4) IU/ml
time of maximum interferon levels (serum interferon [10]; intravenous, higher doses than 0.1 mg/kg): 12 to 24 h
time of maximum titres (serum interferon [10]; oral): 24 to 48 h
serum interferon level at 12th hour (serum interferon [10]; oral, 6.25-100 mg/kg, 12th hour): 128-256 IU/ml
peak serum interferon values (serum interferon [10]; oral, 12.5 or 25 mg/kg, 48th hour): 4096-8192 IU/ml
maximum serum interferon titres (serum interferon [10]; oral, 24-48 hour): 4096-8192 IU/ml
interferon levels at 120th hour (serum interferon [10]; oral): marked interferon levels in the blood
interferon levels at 120th hour (serum interferon [10]; oral, listed as dipyridamole): higher than those in the control (placebo) group
serum interferon level at 12th hour (serum interferon [10]; oral, single doses, 12th hour): 128-256 IU/ml

CCN(CC)CCOc1ccc2c(c1)C(=O)c1cc(OCCN(CC)CC)ccc1-2 [tilorone-hydrochloride]
toxicity [11]: toxic and unsuitable for clinical application

poly I:C
toxicity [11]: toxic internally
